In experiment [1] the target is T1, Bovine lysyl oxidase (LOX) (Bos taurus, UniProt P33072).
T1 construct: from tissue; host or cells: adult bovine tendon
T1 sequence (P33072 170-418): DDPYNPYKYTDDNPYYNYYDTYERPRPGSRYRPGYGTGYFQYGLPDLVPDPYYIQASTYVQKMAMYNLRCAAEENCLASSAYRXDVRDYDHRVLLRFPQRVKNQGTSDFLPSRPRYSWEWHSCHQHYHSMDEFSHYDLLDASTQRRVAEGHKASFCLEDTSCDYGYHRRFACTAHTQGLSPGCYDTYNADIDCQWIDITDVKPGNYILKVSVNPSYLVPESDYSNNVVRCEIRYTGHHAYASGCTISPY
The experiment can be described thus: LOX inhibition assay (fluorometric, cadaverine/Amplex Red/HRP). In kind it is biochemical. The settings on record: IC50 class; bovine tendon LOX, cadaverine substrate; read-out: Activity Range LOX. In outline: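 Bovine tendon-extracted LOX was preincubated 30 min at 37 °C with compound. Cadaverine/Amplex Red/HRP was then added and fluorescence (ex530/em600) monitored for 120 min at 37 °C. Progress-curve slopes, background-subtracted against no-protein wells, were normalised to DMSO controls and fitted with a four-parameter variable-slope dose-response model.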

Experiment [2] has as its target T2, Recombinant human LOXL2 (lysyl oxidase like 2) (Homo sapiens, UniProt Q9Y4K0).
T2 construct: purchased R&D systems
T2 sequence (Q9Y4K0 26-774): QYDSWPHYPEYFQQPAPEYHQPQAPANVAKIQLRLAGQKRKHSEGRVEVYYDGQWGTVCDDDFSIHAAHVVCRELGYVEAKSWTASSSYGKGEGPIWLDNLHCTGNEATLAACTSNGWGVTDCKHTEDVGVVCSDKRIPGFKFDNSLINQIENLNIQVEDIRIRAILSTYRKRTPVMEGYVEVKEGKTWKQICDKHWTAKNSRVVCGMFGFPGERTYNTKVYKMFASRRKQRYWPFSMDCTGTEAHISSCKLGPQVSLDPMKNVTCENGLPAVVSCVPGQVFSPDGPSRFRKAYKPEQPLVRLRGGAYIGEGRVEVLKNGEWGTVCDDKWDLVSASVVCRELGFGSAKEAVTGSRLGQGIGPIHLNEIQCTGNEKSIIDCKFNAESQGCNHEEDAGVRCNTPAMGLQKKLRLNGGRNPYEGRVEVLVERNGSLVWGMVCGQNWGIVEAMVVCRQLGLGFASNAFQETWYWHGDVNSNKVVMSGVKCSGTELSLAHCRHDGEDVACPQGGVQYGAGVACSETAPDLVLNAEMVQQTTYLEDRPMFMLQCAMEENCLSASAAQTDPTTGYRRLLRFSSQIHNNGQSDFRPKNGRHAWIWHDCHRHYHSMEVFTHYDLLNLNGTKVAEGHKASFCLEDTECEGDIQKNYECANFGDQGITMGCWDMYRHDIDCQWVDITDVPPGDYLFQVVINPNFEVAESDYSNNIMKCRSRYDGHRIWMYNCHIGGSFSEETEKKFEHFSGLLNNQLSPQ
Kind of experiment: LOXL2 inhibition assay (fluorometric, cadaverine/Amplex Red/HRP). In kind it is biochemical. Particulars: IC50 class; recombinant human LOXL2, cadaverine substrate; read-out: Activity Range LOXL2. In outline:
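Both enzymes assayed in 1.2 M urea, 50 mM sodium borate pH 8.0, 10 mM CaCl, with 30 min compound–enzyme preincubation at 37° C before cadaverine/Amplex Red/HRP addition. Fluorescence followed 60 min at 37° C; linear-slope rates, background-subtracted, as % of DMSO control, fitted by 4-parameter variable-slope curve (bottom fixed at 0).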

The results in this text go back to patent publication US20230310445A1, “LOX ENZYME INHIBITING METHODS AND COMPOSITIONS” (ANOVIA BIOSCIENCES, INC., priority 2020, published 2023).

As for `CS(=O)(=O)N1CCN(C(=O)[C@@H]2C[C@@H](c3ccccc3)CN(S(=O)(=O)c3ncc(CN)s3)C2)CC1` (racemic) [Example 113T, trans-(1-((5-(Aminomethyl)thiazol-2-yl)sulfonyl)-5-phenylpiperidin-3-yl)(4-(methylsulfonyl)piperazin-1-yl)methanone 2,2,2-trifluoroacetate], the IC50 in experiment [1] was 1 to 30 µM; in experiment [2], at most 0.5 µM.

For `NCc1ccnc(S(=O)(=O)N2C[C@@H](C(=O)N3CCS(=O)(=O)CC3)C[C@@H](N3CCCCC3=O)C2)c1` (racemic) [Example 187, cis-1′-((4-(Aminomethyl)pyridin-2-yl)sulfonyl)-5′-(1,1-dioxidothiomorpholine-4-carbonyl)-[1,3′-bipiperidin]-2-one 2,2,2-trifluoroacetate], the figures for the IC50 in experiment [1] and in experiment [2] were 1 to 30 µM and at most 0.5 µM, respectively.

For `CN(C)C(=O)[C@H]1C[C@@H](c2ccccc2)CN(S(=O)(=O)c2ccc(CN)s2)C1` (racemic) [Example 9, cis-1-((5-(Aminomethyl)thiophen-2-yl)sulfonyl)-N,N-dimethyl-5-phenylpiperidine-3-carboxamide 2,2,2-trifluoroacetate], the IC50 was 0.5 to 1 µM in experiment [1] and at most 0.5 µM in experiment [2].

On to `CS(=O)(=O)[C@@H]1C[C@H](Oc2ccc(CN)cc2)CN(c2ccccc2)C1` (racemic) [Example 20, cis-(4-((-5-(Methylsulfonyl)-1-phenylpiperidin-3-yl)oxy)phenyl)methanamine2,2,2-trifluoroacetate], for which the IC50 in experiment [1] and in experiment [2] was 1 to 30 µM in each case.

In the case of `CS(=O)(=O)N1CCN(C(=O)[C@H]2C[C@@H](c3ccccc3)CN(S(=O)(=O)c3cccc(CN)c3)C2)CC1` (racemic) [Example 78, cis-(1-((3-(Aminomethyl)phenyl)sulfonyl)-5-phenylpiperidin-3-yl)(4-(methylsulfonyl)piperazin-1-yl)methanone 2,2,2-trifluoroacetate], the results for the IC50 in experiment [1] and in experiment [2] were over 30 µM and 0.5 to 1 µM, respectively.

As for `CS(=O)(=O)N1C[C@H](Oc2cc(CN)ccc2F)C[C@H](c2ccccc2F)C1` (racemic) [Example 71, cis-(4-Fluoro-3-((-5-(2-fluorophenyl)-1-(methylsulfonyl)piperidin-3-yl)oxy)phenyl)methanamine 2,2,2-trifluoroacetate], the IC50 in experiment [1] is over 30 µM; in experiment [2] it was 0.5 to 1 µM.

Turning to `CS(=O)(=O)N1C[C@H](Oc2cc(CN)ccc2F)C[C@H](c2ccccc2)C1` (racemic) [Example 69, cis-(4-Fluoro-3-((-1-(methylsulfonyl)-5-phenylpiperidin-3-yl)oxy)phenyl)methanamine 2,2,2-trifluoroacetate], the IC50 in experiment [1] was over 30 µM; in experiment [2] it was at most 0.5 µM.

As for `NCc1cncc(S(=O)(=O)N2C[C@@H](C(=O)N3CCOCC3)C[C@@H](c3ccccc3)C2)c1` (racemic) [Example 131, cis-(1-((5-(Aminomethyl)pyridin-3-yl)sulfonyl)-5-phenylpiperidin-3-yl)(morpholino)methanone 2,2,2-trifluoroacetate], the figures for the IC50 in experiment [1] and in experiment [2] were over 30 µM and 1 to 30 µM, respectively.

Regarding `CS(=O)(=O)N1CCN(C(=O)[C@H]2C[C@@H](c3ccccc3)CN(S(=O)(=O)c3ccc(CN)s3)C2)CC1` (racemic) [Example 76], the IC50 in experiment [1] and in experiment [2] was at most 0.5 µM throughout.

With `NCc1ccnc(S(=O)(=O)N2C[C@@H](C(=O)N3CCS(=O)(=O)CC3)C[C@@H](N3CCCCC3)C2)c1` (racemic) [Example 148, cis-(1′-((4-(Aminomethyl)pyridin-2-yl)sulfonyl)-[1,3′-bipiperidin]-5′-yl)(1,1-dioxidothiomorpholino)methanone 2,2,2-trifluoroacetate], the IC50 in experiment [1] is 1 to 30 µM; in experiment [2], at most 0.5 µM.

In the case of `NCc1cnc(S(=O)(=O)N2C[C@@H](C(=O)N3CCOCC3)C[C@@H](c3ccccc3)C2)s1` (racemic) [Example 111, cis-(1-((5-(Aminomethyl)thiazol-2-yl)sulfonyl)-5-phenylpiperidin-3-yl)(morpholino)methanone 2,2,2-trifluoroacetate], the figures for the IC50 in experiment [1] and in experiment [2] were over 30 µM and 0.5 to 1 µM, respectively.

Turning to `CN(C)C(=O)N1C[C@@H](c2ccccc2)C[C@H](S(=O)(=O)c2cccc(CN)c2)C1` (racemic) [Example 94, trans-3-((3-(Aminomethyl)phenyl)sulfonyl)-N,N-dimethyl-5-phenylpiperidine-1-carboxamide 2,2,2-trifluoroacetate], the IC50 in experiment [1] is over 30 µM; in experiment [2], 0.5 to 1 µM.

As for `CS(=O)(=O)N1CCN(C(=O)[C@@H]2C[C@@H](c3ccccc3)CN(S(=O)(=O)c3cccc(CN)n3)C2)CC1` (racemic) [Example 116T, trans-(1-((6-(Aminomethyl)pyridin-2-yl)sulfonyl)-5-phenylpiperidin-3-yl)(4-(methylsulfonyl)piperazin-1-yl)methanone 2,2,2-trifluoroacetate], the IC50 is over 30 µM in experiment [1] and 1 to 30 µM in experiment [2].

On to `NCc1cccc(S(=O)(=O)[C@@H]2C[C@H](C3CCCCC3)CN(C(=O)N3CCS(=O)(=O)CC3)C2)c1` (racemic) [Example 137, cis-(3-((3-(Aminomethyl)phenyl)sulfonyl)-5-cyclohexylpiperidin-1-yl)(1,1-dioxidothiomorpholino)methanone], for which the IC50 was over 30 µM in experiment [1] and at most 0.5 µM in experiment [2].

Turning to `NCc1cccc(O[C@@H]2C[C@H](c3ccccc3)CN(C(=O)N3CCOCC3)C2)c1` (racemic) [Example 72], the values for the IC50 in experiment [1] and in experiment [2] were over 30 µM and 1 to 30 µM, respectively.

Turning to `CN(C)C(=O)[C@H]1C[C@H](S(=O)(=O)c2cccc(CN)c2)CN(C2CCCCC2)C1` (racemic) [Example 141T, trans-5-((3-(Aminomethyl)phenyl)sulfonyl)-1-cyclohexyl-N,N-dimethylpiperidine-3-carboxamide], the values for the IC50 in experiment [1] and in experiment [2] were over 30 µM and at most 0.5 µM, respectively.

For the molecule `NCc1cccc(S(=O)(=O)N2C[C@@H](C(=O)N3CCS(=O)(=O)CC3)C[C@@H](C(F)(F)F)C2)c1` (racemic) [Example 99, cis-(1-((3-(Aminomethyl)phenyl)sulfonyl)-5-(trifluoromethyl)piperidin-3-yl)(1,1-dioxidothiomorpholino)methanone 2,2,2-trifluoroacetate], the values for the IC50 in experiment [1] and in experiment [2] were over 30 µM and 1 to 30 µM, respectively.

As to `CC(N)c1cccc(S(=O)(=O)N2C[C@H](C(=O)N3CCOCC3)C[C@@H](c3ccccc3)C2)c1` (mixture of isomers) [Example 102TR, trans-(1-((3-(1-Aminoethyl)phenyl)sulfonyl)-5-phenylpiperidin-3-yl)(morpholino)methanone 2,2,2-trifluoroacetate], the IC50 in experiment [1] and in experiment [2] was over 30 µM in each case.

Turning to `CC(N)c1cccc(S(=O)(=O)N2C[C@H](C(=O)N3CCS(=O)(=O)CC3)C[C@@H](c3ccccc3)C2)c1` (mixture of isomers) [Example 106, trans-(1-((3-(1-Aminoethyl)phenyl)sulfonyl)-5-phenylpiperidin-3-yl) (1,1-dioxidothiomorpholino)methanone 2,2,2-trifluoroacetate], the IC50 in experiment [1] and in experiment [2] was over 30 µM in each case.

Take `CS(=O)(=O)N1C[C@@H](c2ccccc2)C[C@@H](S(=O)(=O)c2ccc(CN)cc2)C1` (racemic) [Example 26, cis-(4-((1-(Methylsulfonyl)-5-phenylpiperidin-3-yl)sulfonyl)phenyl)methanamine 2,2,2-trifluoroacetate]: the IC50 in experiment [1] was 1 to 30 µM; in experiment [2], at most 0.5 µM.

Consider `NCc1cccc(S(=O)(=O)[C@H]2C[C@H](C(=O)N3CCOCC3)CN(C3CCCCC3)C2)c1` (racemic) [Example 142T, trans-(5-((3-(Aminomethyl)phenyl)sulfonyl)-1-cyclohexylpiperidin-3-yl)(morpholino)methanone 2,2,2-trifluoroacetate], for which the IC50 was over 30 µM in experiment [1] and at most 0.5 µM in experiment [2].
